Reference: ChEMBL document CHEMBL1121532, “Pyrido[2,1-b]quinazolinecarboxylic acids as orally active antiallergy agents” (1980)

How the values were obtained:
Type in all cases: functional
Rattus norvegicus [1] = assay: % inhibition of antiallergic activity in the rat passive cutaneous anaphylaxis (PCA) test after giving peroral dose of 32 mg/kg; details: route oral
Rattus norvegicus [2] = assay: % inhibition of antiallergic activity in the rat passive cutaneous anaphylaxis (PCA) test after giving intraperitoneal dose of 16 mg/kg; details: ip
Rattus norvegicus [3] = species: Rattus norvegicus; assay: Dose that causes 50% inhibition in the expected wheal size when given perorally; details: po, read-out: ID50 (the source's name)
Rattus norvegicus [4] = assay: % inhibition of antiallergic activity in the rat passive cutaneous anaphylaxis (PCA) test after giving intraperitoneal dose of 16 mg/kg; Not significant; details: ip
Rattus norvegicus [5] = assay: % inhibition of antiallergic activity in the rat passive cutaneous anaphylaxis (PCA) test after giving intraperitoneal dose of 8 mg/kg; details: ip

Row | SMILES | inhibition in vivo at 32 mg/kg (Rattus norvegicus [1]) | inhibition in vivo at 16 mg/kg (Rattus norvegicus [2]) | ED50 (Rattus norvegicus [3]) | inhibition in vivo at 16 mg/kg (Rattus norvegicus [4]) | inhibition in vivo at 8 mg/kg (Rattus norvegicus [5])
1 | Cc1ccc2nc3ccc(C(=O)O)cn3c(=O)c2c1 | 83% | 58% | 3.53 mg/kg | – | –
2 | CC(=O)c1ccc2nc3ccc(C(=O)O)cc3c(=O)n2c1 | – | 44% | – | – | –
3 | CC(C)c1ccc2nc3ccc(C(=O)O)cc3c(=O)n2c1 | 92% | 81% | 0.026 mg/kg | – | –
4 | CO/N=C(\C)c1ccc2nc3ccc(C(=O)O)cc3c(=O)n2c1 | – | 36% | – | – | –
5 | Cc1ccc2nc3ccc(C(=O)O)cc3c(=O)n2c1 | 81% | 69% | 7.11 mg/kg | – | –
6 | O=C(O)c1ccc2nc3ccccc3c(=O)n2c1 | – | – | – | 17% | –
7 | CC(C)c1ccc2nc3ccc(C(=O)O)cn3c(=O)c2c1 | 87% | 76% | 0.45 mg/kg | – | –
8 | O=C(O)c1cc(=O)c2c(OCC(O)COc3cccc4oc(C(=O)O)cc(=O)c34)cccc2o1 [CROMOLYN SODIUM] | 18% | – | – | – | 46%
9 | O=C(O)c1ccc2nc3ccccn3c(=O)c2c1 [DOQUALAST] | – | – | – | 16% | –
